In patent US20120076788A1, “C-CBL AND ANTAGONISTS THEREOF FOR THE TREATMENT AND DIAGNOSIS OF CANCER” (Centre National De La Recherche Scientifique (C.N.R.S.), priority 2009, published 2012):
Entries after “also recorded” stand apart in the source; their conditions may differ.

Experiments:
[1] = tested on: c-Cbl KO and WT Mouse Embryonic Fibroblasts (MEF); assay: Western blotting of apoptosis proteins in c-Cbl KO and WT MEFs treated with apoptotic inducers; assay type: cell-based; conditions: for XIAP expression, decrease relative to control level / c-IAP2 expression, decrease relative to control level: MEFs, apoptosis activation 24 hours (FIG. 3B)
Experimental: The western blotting (WB) experiments, immunohistochemistry (IHC) experiments and RT PCR experiments, with coamplification of the S 20 ribosomal gene, were carried out according to conventional methods already described in e.g. Omezzine et al. (2003, Biol. Reprod., 69: 752-760), Bozec et al. (2004, J. Endocr., 183: 79-90) and El Chami et al. (2005, J. Cell. Biol., 651-661).
(§1) The MEFs KO for c-cbl and the MEFs WT were cultured in DMEM, 10% FCS. The apoptosis inducers were used at a final concentration of 0.5 mM in case of H2O2, and at 10 μM in case of etoposide. The cells were tested for apoptosis 24 hours after treatment. The human prostate cancer lines were transfected with 125 nM of c-cbl IRNA for 6 hours, and were tested for quenching of c-cbl expression 24 or 48 hours after transfection. The treatment was the same with RAT1-MEN2A cells.
(§2) Each of them are known to involve different signaling routes, both leading to the mitochondrial pathway of apoptosis. Hydrogen peroxide activates C-Jun Kinase, whereas Etoposide blocks topoisomerase II causing dsDNA breaks and DNA-PK/p53 activation (DeYulia et al. 2005 Proc Natl Acad Sci USA 102:5044-9; Kamata and Hirata 1999 Cell Signal 11:1-14; Karpinich et al. 2002 J Biol Chem 277:16547-52).

[2] = tested on: c-Cbl KO and WT Mouse Embryonic Fibroblasts (MEF); assay: Apoptotic cells (DAPI nuclear fragmentation, TUNEL) in c-Cbl KO and WT MEFs treated with H2O2 or Etoposide; assay type: cell-based; set-up: more apoptotic cells in KO than in WT MEF cultures: dose or concentration left out as unconfirmed; conditions: for more apoptotic cells in KO than in WT MEF cultures: average, 16 or 24 H
Experimental: as §1, with “The apoptosis inducers were used at a final concentration of 0.5 mM in case of H2O2, and at 10 μM in case of etoposide.” left out
as §2

LNCaP cells [3] = assay: Protein expression in LNCaP cells cultured with hydrogen peroxide or etoposide; assay type: cell-based, human; conditions: 24 hours; for Bax protein expression: particularly upon etoposide treatment; for Bcl-2 expression / c-Cbl expression / c-IAP2 expression: versus absence of agent
Experimental: (§3) A. c-Cbl expression upon a 24 hours treatment with 25 or 50 nM of hydrogen peroxide respectively, or with 10 or 30 μM of etoposide respectively. Expression of the anti-apoptotic Bcl-2 and c-IAP2 proteins and of the pro-apoptotic Bcl-2 family protein Bax is also shown. B. c-Cbl expression after 48 hours of c-Cbl silencing. Expression of APE1, which is indicative of oxidative stress, is shown compared with medium control (Ctrl) and with si-control (si-Ctrl).
(§4) LNCaP is a human cell line, derived from a prostatic hormone-dependent metastatic tumor. The cells were maintained in RPMI 1640 medium (Invitrogen), supplemented with 7.5% FCS, 20 μg/ml streptomycin, 20 U/ml nystatin. LNCaP were used between the passages 50-60. For western-blotting LNCaP cells were seeded in 10cm disk (22.10^5 cells) and 6 cm disk (8.10^5 cells) respectively, with 5 disks per condition. Cells were allowed to attach for 24H and treated with various concentrations of R1881 at day 0. All the cells, including the controls, were cultured in the presence of the same ethanol concentration. For H2O2 or etoposide treatment, LNCaP cells were cultured for 24 hours in the presence of known concentrations of H2O2 or etoposide. The RNA silencing was classically done in Optimen medium (Gibco) using lipofectamine 2000 following the manufacturer's instructions (Invitrogen). The c-Cbl RNAi was generated by Eurogentec. Its sequence is: […] (SEQ ID NO: 2). The siRNA controls were purchased from Invitrogen : siRNA-A (sc-37007) and siRNA-B (sc-44230).

c-Cbl [4] = assay: c-Cbl expression (Western blotting, RT-PCR) in prostate lobes of adult rats exposed to flutamide; assay type: in vivo, rat
c-Cbl [5] = assay: In situ c-Cbl staining of rat prostate after flutamide treatment; assay type: in vivo; conditions: 10mg/kg/day, 96 H
LNCaP cells [6] = assay: c-Cbl silencing in LNCaP cells, APE1/REF1 oxidative stress signal; assay type: cell-based, human; conditions: 48 hours of c-Cbl silencing, versus Ctrl and si-Ctrl
Experimental: as §3
as §4, with “(SEQ ID NO: 2). The siRNA controls were purchased from Invitrogen : siRNA-A (sc-37007) and siRNA-B (sc-44230).” left out

c-cbl [7] = assay: Effectiveness of c-cbl iRNA on c-cbl; conditions: human, rat and mouse c-cbl
From the text: (§5) The c-cbl IRNA was produced by Eurogentec and had the following sequences: 5′ […] 3′ (SEQ ID NO: 2) and 5′ […] 3′ (SEQ ID NO: 3). It is effective on human, rat and mouse c-cbl. It is ineffective on cbl-b.

cbl-b = assay: Effectiveness of c-cbl iRNA on cbl-b
From the text: as §5

| impact on the number of living cells (c-Cbl [4]; doses 2 to 10 mg/kg/day) | integrity of the epithelium border (c-Cbl [5]) | Compound | cleaved caspase 3 expression ([1]; KO or WT MEFs, 24 hours) | XIAP expression, decrease relative to control level [1] | c-IAP2 expression, decrease relative to control level [1] | percentage of apoptotic cells ([2]; WT MEF cultures) | more apoptotic cells in KO than in WT MEF cultures [2] | percentage of apoptotic cells ([2]; c-Cbl KO MEF cultures) | Bax protein expression (LNCaP cells [3]) | Bcl-2 expression (LNCaP cells [3]) | c-Cbl expression (LNCaP cells [3]) | c-IAP2 expression (LNCaP cells [3]) | activated caspase 3 expression increase ([1]; WT MEFs, 24 hours) | cleaved (activated) caspase 3 expression relative to control ([1]; c-Cbl KO MEFs, 24 hours) | sensitivity of c-cbl KO MEF cells versus WT MEF cells ([2]; TUNEL, FIG. 10) | c-Cbl expression (LNCaP cells [3]; listed as H202) | dose from which decreased c-cbl expression was observed (c-Cbl [4]; dose/effect experiments, rat ventral prostate) | anti-APE1/REF1 signal (oxidative stress) (LNCaP cells [6]) | effectiveness on c-cbl (c-cbl [7]) | effectiveness on cbl-b (cbl-b) |
| --- | --- | --- | --- | --- | --- | --- | --- | --- | --- | --- | --- | --- | --- | --- | --- | --- | --- | --- | --- | --- |
| – | – | COc1cc([C@@H]2c3cc4c(cc3[C@@H](O[C@@H]3O[C@@H]5CO[C@@H](C)O[C@H]5[C@H](O)[C@H]3O)[C@H]3COC(=O)[C@H]23)OCO4)cc(OC)c1O [Etoposide] | slight but not significant increase | around one/third | around one/third | 5.8% | 29% | 4% | increased | slightly less expressed | slightly less expressed; also recorded: decreased | slightly less expressed | – | – | – | – | – | – | – | – |
| – | – | OO [H2O2, Hydrogen peroxide] | – | around one/third | around one/third | 4.9% | 43% | 8.75% | increased | slightly less expressed | slightly less expressed | slightly less expressed | two times | three times and half | about twice | decreased | – | – | – | – |
| very weak impact | did not affect at all | CC(C)C(=O)Nc1ccc([N+](=O)[O-])c(C(F)(F)F)c1 [flutamide] | – | – | – | – | – | – | – | – | – | – | – | – | – | – | ≥ 2 mg/kg/day | – | – | – |
| – | – | c-cbl IRNA: c-cbl iRNA produced by Eurogentec, sequences SEQ ID NO: 2 and SEQ ID NO: 3 (chain 1 GGGAAGGCUUCUAUUUGUU; chain 2 CUGUCCAUCUAGAGACAAA; listed as RNA, chemistry not given here) | – | – | – | – | – | – | – | – | – | – | – | – | – | – | – | slight decrease | effective | ineffective |
